These results are taken from article PMC12526212, “Novel Isolongifolenone-Based Caprolactam Derivatives as Potential Anticancer Agents via the p53/mTOR/Autophagy Pathway” (Molecules, 2025).

Structures are written as SMILES. Where two headings read alike, the source gives them in different places.

For experiment [1], the system named is HepG2. Description: CCK-8 antiproliferative assay, HepG2. The format is cell-based. As to conditions: Homo sapiens, read-out: IC50 HepG2. How it is done:
(§1) After synthesis and characterization, the isolongifolenone bicyclocaprolactam derivatives were evaluated for their in vitro antiproliferative activity against three cancer cell lines (MCF-7, HepG2, A549) using a CCK-8 assay. […] In general, the antiproliferative activities of most of these compounds were similar, irrespective of whether electron-withdrawing or electron-donating substituents were introduced in the phenoxy ring.
(§2) Three cancer cell lines (human breast adenocarcinoma cells MCF-7, human lung adenocarcinoma epithelial cells A549, and human hepatocellular carcinoma cells HepG2) were obtained from the Cell Bank of the Chinese Academy of Sciences (Shanghai, China). LO2 human normal liver cells were also purchased from STEM RECELL (Beijing, China, STM-CL-5770). The anti-proliferation activity of compounds was tested on three cancer cell lines. The cytotoxicity of compounds as tested on normal cell line (human normal liver cells LO2). Cells were seeded at a density of 5000 cells per well in 96-well plates. Natural product piperlongumine was used as the positive control. All experiments were performed in triplicate. Three cancer cell lines were cultured in High DMEM medium or RIPM 1640 containing 10% FBS (Sijiqing, Hangzhou, China) and 1% antibiotics at 37 °C in a 5% CO2 incubator. The experimental cells were seeded in a 96-well plate at 5000 cells per well and incubated for 24 h. The old medium was replaced with experimental medium, and the cells were cultured for 48 h. Afterward, 10 µL of CCK-8 solution was added to each well, and the cells were incubated for 3 h. The absorbance at 450 nm was measured using a microplate reader.

The test system of experiment [2] is LO2. Nature of the experiment: CCK-8 cytotoxicity on normal cell line LO2. Conditions: Homo sapiens, L02; normal liver cells, CCK-8, 48 h, mean ± SD of three experiments. The format is cell-based. How it is done: as §2
In experiment [3] the test system is MCF-7. Description: CCK-8 antiproliferative assay, MCF-7. The format is cell-based. As to conditions: Homo sapiens, read-out: IC50 MCF-7. How it is done:
as §1, §2

Experiment [4] relates to A549. Description: CCK-8 antiproliferative assay, A549. As to conditions: Homo sapiens, read-out: IC50 A549. The format is cell-based. As for the experimental part: as §1, §2
Experiment [5] concerns three cancer cell lines (MCF-7, HepG2, A549). Nature of the experiment: CCK-8 antiproliferative assay, three cancer cell lines together. The format is cell-based, human. As for the experimental part: as §1, §2
Where [6] appears, read: HepG2, CCK-8, 48 h, mean ± SD of three experiments.
Setting [7] is: MCF7, CCK-8, 48 h, mean ± SD of three experiments.
Where [8] appears, read: A549, CCK-8, 48 h, mean ± SD of three experiments.

As to `CC1(C)C2=CC(=O)N(C(=O)C=Cc3ccc(Cl)cc3)CC(C)(C)C23CCC1C3` (centres unmarked) [E3, 5,5,9,9-Tetramethyl-3-(3-(4-chlorophenyl)acryloyl)-4,5,6,7,8,9-hexahydro-5a,8-methanobenzo[d]azepin-2(3H)-one], the IC50 in experiment [1] (setting [6]) is 7.09 ± 0.33 µM; in experiment [2] it was over 20 µM; in experiment [3] (setting [7]), 18.97 ± 0.13 µM; in experiment [4] (setting [8]), 16.9 ± 0.27 µM.
`CC1(C)C2=CC(=O)N(C(=O)C=Cc3cccnc3)CC(C)(C)C23CCC1C3` (centres unmarked) [E18, 5,5,9,9-Tetramethyl-3-(3-(pyridin-3-yl)acryloyl)-4,5,6,7,8,9-hexahydro-5a,8-methanobenzo[d]azepin-2(3H)-one]: the IC50 in experiment [1] (setting [6]), in experiment [2], in experiment [3] (setting [7]) and in experiment [4] (setting [8]) was over 20 µM in each case. For the same compound, in experiment [5], the “antiproliferative / anticancer activity” value is recorded as “entirely lost”.
Consider `COc1ccc(C=CC(=O)N2CC(C)(C)C34CCC(C3)C(C)(C)C4=CC2=O)cc1OC` (centres unmarked) [E17, 5,5,9,9-Tetramethyl-3-(3-(3,4-dimethoxyphenyl)acryloyl)-4,5,6,7,8,9-hexahydro-5a,8-methanobenzo[d]azepin-2(3H)-one], for which the IC50 in experiment [1] (setting [6]) is 2.56 ± 0.16 µM; in experiment [2], over 20 µM; in experiment [3] (setting [7]), 2.16 ± 0.03 µM; in experiment [4] (setting [8]), 5.28 ± 0.08 µM. The “antiproliferative / anticancer activity” value in experiment [5] is “good anticancer activity”.
As to `CC1(C)C2=CC(=O)N(C(=O)C=Cc3cccc(F)c3)CC(C)(C)C23CCC1C3` (centres unmarked) [E6, 5,5,9,9-Tetramethyl-3-(3-(3-fluorophenyl)acryloyl)-4,5,6,7,8,9-hexahydro-5a,8-methanobenzo[d]azepin-2(3H)-one], the IC50 in experiment [1] (setting [6]) was 5.96 ± 0.05 µM; in experiment [2], over 20 µM; in experiment [3] (setting [7]) it was 5.32 ± 0.11 µM; in experiment [4] (setting [8]), 5.34 ± 0.16 µM.
Take `CC1(C)C2=CC(=O)N(C(=O)C=Cc3ccc(Br)cc3)CC(C)(C)C23CCC1C3` (centres unmarked) [E14, 5,5,9,9-Tetramethyl-3-(3-(4-bromophenyl)acryloyl)-4,5,6,7,8,9-hexahydro-5a,8-methanobenzo[d]azepin-2(3H)-one]: the IC50 in experiment [1] (setting [6]) is 2.38 ± 0.16 µM; in experiment [2], over 20 µM; in experiment [3] (setting [7]), 1.27 ± 0.04 µM; in experiment [4] (setting [8]), 3.21 ± 0.16 µM.
Taken in the same sequence, the figures for `CC1(C)C2=CC(=O)N(C(=O)C=Cc3ccc(F)cc3)CC(C)(C)C23CCC1C3` (centres unmarked) [E1, 5,5,9,9-Tetramethyl-3-(3-(4-fluorophenyl)acryloyl)-4,5,6,7,8,9-hexahydro-5a,8-methanobenzo[d]azepin-2(3H)-one] were over 20 µM, over 20 µM, 9.18 ± 0.11 µM and 11.7 ± 0.16 µM.
Taken in the same sequence, the figures for `CC1(C)C2=CC(=O)N(C(=O)C=Cc3ccc(C(F)(F)F)cc3)CC(C)(C)C23CCC1C3` (centres unmarked) [E4, 5,5,9,9-Tetramethyl-3-(3-(4-(trifluoromethyl)phenyl)acryloyl)-4,5,6,7,8,9-hexahydro-5a,8-methanobenzo[d]azepin-2(3H)-one] were over 20 µM, over 20 µM, 16.74 ± 0.16 µM and 14.98 ± 0.1 µM.
In the case of `CC1(C)C2=CC(=O)N(C(=O)C=Cc3cccc(Cl)c3)CC(C)(C)C23CCC1C3` (centres unmarked) [E7, 5,5,9,9-Tetramethyl-3-(3-(3-chlorophenyl)acryloyl)-4,5,6,7,8,9-hexahydro-5a,8-methanobenzo[d]azepin-2(3H)-one], the IC50 in experiment [1] (setting [6]) was 6.67 ± 0.06 µM; in experiment [2] it was over 20 µM; in experiment [3] (setting [7]) it was 2.67 ± 0.11 µM; in experiment [4] (setting [8]) it was 2.28 ± 0.1 µM.
The corresponding values for `COc1ccc(C=CC(=O)N2CC(C)(C)C34CCC(C3)C(C)(C)C4=CC2=O)cc1` (centres unmarked) [E16, 5,5,9,9-Tetramethyl-3-(3-(4-methoxyphenyl)acryloyl)-4,5,6,7,8,9-hexahydro-5a,8-methanobenzo[d]azepin-2(3H)-one] are 2.44 ± 0.16 µM, over 20 µM, 2.67 ± 0.18 µM and 5.28 ± 0.1 µM.
In the case of `CC1(C)C2=CC(=O)N(C(=O)C=Cc3ccccc3C(F)(F)F)CC(C)(C)C23CCC1C3` (centres unmarked) [E11, 5,5,9,9-Tetramethyl-3-(3-(2-(trifluoromethyl)phenyl)acryloyl)-4,5,6,7,8,9-hexahydro-5a,8-methanobenzo[d]azepin-2(3H)-one], the IC50 was 4.53 ± 0.12 µM in experiment [1] (setting [6]), over 20 µM in experiment [2], 5.63 ± 0.3 µM in experiment [3] (setting [7]) and 18.3 ± 0.21 µM in experiment [4] (setting [8]).
With `CC1(C)C2=CC(=O)N(C(=O)C=Cc3ccc(F)c(F)c3)CC(C)(C)C23CCC1C3` (centres unmarked) [E19, 5,5,9,9-Tetramethyl-3-(3-(3,4-difluorophenyl)acryloyl)-4,5,6,7,8,9-hexahydro-5a,8-methanobenzo[d]azepin-2(3H)-one], the IC50 is 18.43 ± 0.16 µM in experiment [1] (setting [6]), over 20 µM in experiment [2], 17.07 ± 0.06 µM in experiment [3] (setting [7]) and 18.9 ± 0.16 µM in experiment [4] (setting [8]). Besides, the “antiproliferative / anticancer activity” value in experiment [5] was “good anticancer activity”.
Consider `CC1(C)C2=CC(=O)N(C(=O)C=Cc3cccc(Br)c3)CC(C)(C)C23CCC1C3` (centres unmarked) [E12, 5,5,9,9-Tetramethyl-3-(3-(3-bromophenyl)acryloyl)-4,5,6,7,8,9-hexahydro-5a,8-methanobenzo[d]azepin-2(3H)-one], for which the IC50 in experiment [1] (setting [6]) is 4.89 ± 0.52 µM; in experiment [2] it was 11.26 ± 0.06 µM; in experiment [3] (setting [7]) it was 1.26 ± 0.19 µM; in experiment [4] (setting [8]), 3.55 ± 0.04 µM.
The corresponding values for `Cc1ccc(C=CC(=O)N2CC(C)(C)C34CCC(C3)C(C)(C)C4=CC2=O)cc1` (centres unmarked) [E2, 5,5,9,9-Tetramethyl-3-(3-(4-tolyl)acryloyl)-4,5,6,7,8,9-hexahydro-5a,8-methanobenzo[d]azepin-2(3H)-one] are 6.6 ± 0.07 µM, over 20 µM, 1.29 ± 0.04 µM and 3.18 ± 0.16 µM.
As to `CC1(C)C2=CC(=O)N(C(=O)C=Cc3ccccc3Br)CC(C)(C)C23CCC1C3` (centres unmarked) [E13, 5,5,9,9-Tetramethyl-3-(3-(2-bromophenyl)acryloyl)-4,5,6,7,8,9-hexahydro-5a,8-methanobenzo[d]azepin-2(3H)-one], the IC50 in experiment [1] (setting [6]) is 2.67 ± 0.16 µM; in experiment [2], over 20 µM; in experiment [3] (setting [7]) it was 2.12 ± 0.04 µM; in experiment [4] (setting [8]) it was 4.64 ± 0.06 µM.
Take `CC1(C)C2=CC(=O)N(C(=O)C=Cc3ccccc3Cl)CC(C)(C)C23CCC1C3` (centres unmarked) [E15, 5,5,9,9-Tetramethyl-3-(3-(2-chlorophenyl)acryloyl)-4,5,6,7,8,9-hexahydro-5a,8-methanobenzo[d]azepin-2(3H)-one]: the IC50 in experiment [1] (setting [6]) was 2.09 ± 0.16 µM; in experiment [2], over 20 µM; in experiment [3] (setting [7]), 1.58 ± 0.16 µM; in experiment [4] (setting [8]), 3.47 ± 0.16 µM.
Taken in the same sequence, the figures for `Cc1ccccc1C=CC(=O)N1CC(C)(C)C23CCC(C2)C(C)(C)C3=CC1=O` (centres unmarked) [E5, 5,5,9,9-Tetramethyl-3-(3-(2-tolyl)acryloyl)-4,5,6,7,8,9-hexahydro-5a,8-methanobenzo[d]azepin-2(3H)-one] were 1.86 ± 0.09 µM, over 20 µM, 2.86 ± 0.12 µM and 3.89 ± 0.44 µM.
In the case of `COc1cc(/C=C/C(=O)N2CCC=CC2=O)cc(OC)c1OC` [PL, Piperlongumine, reference compound], the IC50 in experiment [1] (HepG2, 48 h) is 3.46 ± 0.25 µM; in experiment [3] (MCF7, 48 h), 2.79 ± 0.43 µM; in experiment [4] (A549, 48 h), 5.83 ± 0.26 µM.
Turning to `COc1ccccc1C=CC(=O)N1CC(C)(C)C23CCC(C2)C(C)(C)C3=CC1=O` (centres unmarked) [E9, 5,5,9,9-Tetramethyl-3-(3-(2-methoxyphenyl)acryloyl)-4,5,6,7,8,9-hexahydro-5a,8-methanobenzo[d]azepin-2(3H)-one], the concentration for half-maximal inhibition (IC50) was 2.17 ± 0.24 µM in experiment [1] (setting [6]), over 20 µM in experiment [2], 2.22 ± 0.07 µM in experiment [3] (setting [7]) and 2.13 ± 0.16 µM in experiment [4] (setting [8]).
